This note sets out measurements from patent publication US5204336A, “Naphthyl-,tetrahydronaphthyl-, and indanyl-substituted G-em-diphosphonates and process of use to treat hyperlipidemia” (Symphar S.A., priority 1992, dated 1993).

Usually IC50 stands for the concentration that inhibits the measured activity by half.

The subject of this assay is peroxide produced in rat liver homogenates. As to the kind of experiment: Antioxidant activity: FeSO4-generated peroxides in rat liver homogenate, thiobarbituric acid reaction. Particulars: rat liver homogenate incubated with FeSO4, thiobarbituric acid reaction; read-out: IC50, antioxidant activity (peroxide production). In kind it is biochemical. The protocol: Rat liver homogenates were prepared according to Fraga, C. G. et al. Free Radicals Biol. Med., 4, 155, 1988 and Kornburst D. J. et al. Lipids 15, 315, 1980.
Peroxides were generated by incubation of the homogenate with the FeSO4 as described by Quitanilha A. T. et al. Ann. N.Y., Acad. Sci. 393, 32, 1982.
Compounds to be tested for their antioxidant activity were dissolved in DMSO and added to the incubation mixture. The amount of peroxide produced was determined by the thiobarbituric acid reaction using malonaldehyde as standard.

For the compound `CCOP(=O)(OCC)C(=Cc1cc(C(C)(C)C)c(O)c2ccccc12)P(=O)(OCC)OCC` [Example 1], the IC50 came out at 1500 nM. `CC(C)OP(=O)(OC(C)C)C(=Cc1cc(C(C)(C)C)c(O)c2ccccc12)P(=O)(OC(C)C)OC(C)C` [Example 2]: the IC50 amounted to 700 nM. The figure for `CCOP(=O)(OCC)C(=Cc1cc(C(C)(C)C)c(O)c2c1CCCC2)P(=O)(OCC)OCC` [Example 6, Tetraethyl 2-(3-tert-butyl-4-hydroxy-5,6,7,8-tetrahydronaphthyl)-ethenylidene-1,1-diphosphonate] is 7000 nM; for `CC(C)OP(=O)(OC(C)C)C(=Cc1cc(C(C)(C)C)c(O)c2c1CCCC2)P(=O)(OC(C)C)OC(C)C` [Example 8, Tetraispropyl 2-[3-tert-butyl-4-hydroxy-5,6,7,8-tetrahydronaphthyl]-ethenylidene-1,1-diphosphonate] it is 2500 nM.
